One molecule from patent publication US6696407B1, “Huntington's disease treatment comprising administering aldose reductase inhibitors to increase striatal CNTF” (The Regents of the University of California, priority 1997, dated 2004) can be followed below.

Marks after values point to notes of the source that are not given here.

A short description of assay [1]: Motor nerve conduction velocity (MNCV). Format: in vivo, rat. As to conditions: Ponalrestat 50 mg/kg daily oral, two months. The procedure: These studies were conducted with the approval of the San Diego Veterans Administration Animal Studies Subcommittee. Female Sprague-Dawley rats (240-300 g; Charles River, San Diego, Calif.) were housed in cages with wire bottoms to reduce contact with urine and feces. Groups were established and fed either a 40% D-galactose diet or a control diet specially formulated by Purina that contained 40% solka floc, a nonnutritive fiber, to balance nutritional intake. All diets contained 100% of the micronutrients required by rats and, with water, were available ad libitum. Each of these diet groups contained animals that were treated with the ARI, Ponalrestat (50 mg/kg), daily by oral gavage. […] Under deep anesthesia, motor nerve conduction velocity (MNCV) was measured in the left hindlimb prior to removal of the sciatic nerve. […] Evoked responses were recorded with needle electrodes placed in the interosseous muscles of the ipsilateral foot, amplified (×100) with a P15 AC Amplifier (Grass Instruments Co, Quincy, Mass.) and recorded on a 5110 Storage Oscilloscope and 5D10 Waveform Digitizer (Tektronix, Inc., Beaverton, Oreg.). […] Data are presented as mean ±SD (N=8 to 10) and were analyzed with a one way ANOVA after which multiple comparisons were made with the Student-Newman-Keuls test. […] ARI-treated animals received a daily oral gavage (50 mg/kg) of Ponalrestat (ND-Not detected).

For a further assay, the system named is myelinated fibers. Nature of the assay: Axonal size-frequency distribution of myelinated fibers in sciatic nerve. It counts as in vivo, rat. As to conditions: galactose-fed rats. The procedure: These studies were conducted with the approval of the San Diego Veterans Administration Animal Studies Subcommittee. Female Sprague-Dawley rats (240-300 g; Charles River, San Diego, Calif.) were housed in cages with wire bottoms to reduce contact with urine and feces. Groups were established and fed either a 40% D-galactose diet or a control diet specially formulated by Purina that contained 40% solka floc, a nonnutritive fiber, to balance nutritional intake. All diets contained 100% of the micronutrients required by rats and, with water, were available ad libitum. Each of these diet groups contained animals that were treated with the ARI, Ponalrestat (50 mg/kg), daily by oral gavage. After two months, rats were anesthetized by intraperitoneal injection (1 ml/kg ip) of pentobarbital sodium (12.5 mg/ml) and diazepam (1.25 mg/ml) in bacteriostatic saline. Under deep anesthesia, motor nerve conduction velocity (MNCV) was measured in the left hindlimb prior to removal of the sciatic nerve. The proximal portion was processed for subsequent light microscopic examination and the distal portion used for gas chromatographic analysis of nerve polyols. The contralateral sciatic nerve was removed and used for assay of CNTF-like neurotrophic activity and either Northern blot or ELISA analysis of CNTF mRNA or protein, respectively.
For light microscopic examination, proximal portions of sciatic nerve were fixed in 2.5% phosphate-buffered glutaraldehyde (490 mosmol/kg H2O). Tissue was then postfixed in 1% aqueous osmium tetroxide for 3 to 4 hours before dehydration using a series of graded alcohols and propylene oxide. […]
In each animal, computer-assisted analysis of the axonal size-frequency distributions of myelinated fibers was performed on a single thick section sampled from the tibial fascicle midway between the sciatic notch and popliteal fossa as described in detail previously by Forcier et al. (1991) J. Neuropathol. […] Briefly, video images (Cohu, San Diego, Calif.) of the tibial fascicle obtained with an Olympus light microscope were analyzed using a VAXstation II/GPX processor (Digital Equipment Corp., Boston, Mass.) with data translation imaging hardware (DT 2651, Data Translation, Marlboro, Mass.) for digitization of single video frames and an image processing board (DT2658) for mathematical operations. […]
Two months of galactose feeding was associated with a shift in the axonal size-frequency distribution of myelinated fibers towards those with smaller diameter axons (FIG. 4). […] Data are presented as the mean ±SD (N=8 to 10 per group) and were analyzed with a one way ANOVA after which multiple comparisons were made with the Student-Newman-Keuls test. […]

Take `O=C(O)Cc1nn(Cc2ccc(Br)cc2F)c(=O)c2ccccc12` [Ponalrestat, 3-(4-bromo-2-fluorobenzyl)-4-oxo-3H-phthalazin-1-ylacetic acid]: the MNCV in assay [1] (40% D-galactose diet rats) was 64.8 ± 5.1^a m/s; in assay [1] (control diet rats), 63.9 ± 4.0^a m/s. Besides, the “Relative number, Medium myelinated axons” value in the assay on myelinated fibers (diameter >3 μm but <7 μm, Ponalrestat 50 mg/kg daily oral, two months) was 45.2 ± 5.0^a %. The “Relative number, Small myelinated axons” value in the assay with myelinated fibers (diameter ≦3 μm, Ponalrestat 50 mg/kg daily oral, two months) was determined as 17.7 ± 4.9%. For the same molecule, the “Relative number, Large myelinated axons” value with myelinated fibers (diameter ≧7 μm, Ponalrestat 50 mg/kg daily oral, two months) is 37.1 ± 6.7^a %. Further, the “Changes in axonal caliber” value in the assay with myelinated fibers is listed as “prevented”.
